Test results published in patent US9944971B2, “Determination of direct thrombin inhibitors in fluids like serum or urine” (DOASENSE GmbH, priority 2011, dated 2018).

Assays:
[1] = Concentration of dabigatran in urine of a treated patient, read from curve of spiked urine; parameters: species or system human
Procedure: This program quantifies the colors red, yellow and blue. […] Mean values were calculated from double values.

thrombin = biological target: T1, thrombin (Bos taurus, UniProt P00735); assay: Chromogenic thrombin (factor IIa) inhibition test with substrate S-2238, absorption at 405 nm; format: biochemical; conditions: samples of plasma, serum and urine spiked at different concentrations, FIGS. 2 and 3
T1 construct: purchased Chromogenix
Procedure: Dissolve 1 ampule thrombin 10 U with 1 ml aqua. dest and is brought to 11.5 ml with Tris-Buffer. Additionally, add 1 ml aprotinin 500 KIU/ml.
The concentration of Dabigatran and Hirudin was carried out using the standard curve. The concentration of Dabigatran/Hirudin was determined by the optical density (OD) of the sample.

[H]/N=C(/N)c1ccc(NCc2nc3cc(C(=O)N(CCC(=O)O)c4ccccn4)ccc3n2C)cc1 [Dabigatran]
concentration of dabigatran ([1]; human urine from a patient treated with dabigatran, undiluted): 85 ng | concentration of dabigatran ([1]; patient urine diluted 1:10 with urine not containing dabigatran): 8.5 ng | concentration of dabigatran ([1]; patient urine diluted 1:100 with urine not containing dabigatran): 0.85 ng

Hirudin
inhibition of the activity of thrombin and release of para-nitroaniline from chromogenic substrate S2238 (thrombin): in a dose-dependent manner
